The record followed here is ChEMBL document CHEMBL1201862, “PubChem BioAssay data set” (2004).

Among the test systems are A498; CAKI-1; COLO 205; HCT-15; HOP-62; HOP-92; HT-29; IGROV-1; K562; M14; MCF7; NCI-H460; NCI-H522; RPMI-8226; RXF 393; SK-OV-3; SN12C; SNB-75; T47D; UO-31.
Holding throughout (experiment): DTP human tumour cell line panel, 48 h

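These data come from cells grown in 96-well plates and exposed to compound for 48 hours at five concentrations. GI50 marks 50% less growth.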 Activity calls are given as the source filed them. Cut-off read from the data, not from the text of the source: active = GI50 up to about 1.1 µM and inactive = higher. A value given as a limit tells only on which side of the number the result lay.

On to `c1ccc2cc(CN3CCC(C4CCN(Cc5ccc6ccccc6c5)CC4)CC3)ccc2c1`, for which the GI50 in the assay on A498 was 10.8 µM (inactive); in the assay on CAKI-1 it was 5.53 µM (inactive); in the assay with COLO 205, 1.76 µM (inactive); with HCT-15 it was 3.18 µM; in the assay with HOP-62, 2.49 µM (inactive); in the assay with HOP-92, 4.1 µM (inactive). For the same molecule, the GI50 in the assay on HT-29 is 1.52 µM (inactive); with IGROV-1, 6.4 µM (inactive); with K562 it was 0.692 µM (active); in the assay with M14, 1.91 µM (inactive); with MCF7, 2.06 µM (inactive); in the assay on NCI-H460, 3.11 µM (inactive). The GI50 with NCI-H522 is 1.89 µM (inactive); with RPMI-8226, 2.48 µM (inactive); with RXF 393, 2.74 µM (inactive); in the assay with SK-OV-3 it was 10.1 µM (inactive); with SN12C it was 21.8 µM (inactive); with SNB-75, 2.67 µM (inactive). Besides, the GI50 with T47D is 4.76 µM (inactive); with UO-31 it was 1.34 µM (inactive).

Turning to `CC(=O)NCCC1CN(C(=O)/C=C/I)c2ccccc21` (stereo not given), the GI50 is 6.98 µM (inactive) in the assay with A498; 4.75 µM (inactive) with CAKI-1; 3.75 µM (inactive) in the assay on COLO 205; 4.93 µM with HCT-15; 14.2 µM (inactive) in the assay with HOP-62; 1.9 µM (inactive) in the assay on HOP-92. Further, the GI50 was 5.51 µM (inactive) with HT-29; 6.55 µM (inactive) with IGROV-1; 3.73 µM (inactive) with K562; 3.37 µM (inactive) in the assay with M14; 0.308 µM (active) with MCF7; 4.62 µM (inactive) in the assay on NCI-H460. The GI50 in the assay on NCI-H522 was 1.39 µM (inactive); in the assay with RPMI-8226 it was 0.292 µM (active); with RXF 393, 5.21 µM (inactive); with SK-OV-3, 14.7 µM (inactive); in the assay on SN12C it was 3.93 µM (inactive); with SNB-75, 16.8 µM (inactive). Also, the GI50 in the assay with T47D is 2.04 µM (inactive); in the assay with UO-31, 2.89 µM (inactive).

With `O=C1NC(=S)NC(=O)C1=Cc1cccc2cc3ccccc3cc12`, the GI50 in the assay with A498 was 1.97 µM (inactive); with CAKI-1, 2.03 µM (inactive); with COLO 205 it was 1.88 µM (inactive); with HCT-15, 1.68 µM; in the assay on HOP-62 it was 1.84 µM (inactive); in the assay on HOP-92, 1.66 µM (inactive). Besides, the GI50 in the assay on HT-29 is 2.13 µM (inactive); in the assay on IGROV-1, 1.67 µM (inactive); in the assay with K562, 2.07 µM (inactive); in the assay on M14, 2.24 µM (inactive); with MCF7, 1.8 µM (inactive); with NCI-H460, 2.12 µM (inactive). The GI50 is 1.91 µM (inactive) with NCI-H522; 1.24 µM (inactive) in the assay with RPMI-8226; 1.66 µM (inactive) in the assay with RXF 393; 2.83 µM (inactive) in the assay with SK-OV-3; 2.32 µM (inactive) with SN12C; 1.59 µM (inactive) in the assay with SNB-75. Besides, the GI50 is 0.9 µM (active) with T47D and 1.95 µM (inactive) in the assay on UO-31.

Regarding `CCOC(=O)C1=C(C(=O)OCC)SC2(S1)C(C(=O)OCC)=C(C(=O)OCC)Sc1c2ssc1=O`, the GI50 in the assay on A498 was 6.15 µM (inactive); with CAKI-1 it was 2.42 µM (inactive); with COLO 205 it was 1.84 µM (inactive); in the assay with HCT-15, 0.912 µM; in the assay with HOP-62, 1.67 µM (inactive); in the assay on HOP-92 it was 1.35 µM (inactive). The GI50 was 1.76 µM (inactive) in the assay with HT-29; 0.764 µM (active) with IGROV-1; 0.474 µM (active) in the assay with K562; 2.04 µM (inactive) in the assay with M14; 1.74 µM (inactive) with MCF7; 8.51 µM (inactive) with NCI-H460. Besides, the GI50 was 1.36 µM (inactive) with NCI-H522; 1.59 µM (inactive) with RPMI-8226; 1.03 µM (active) in the assay on RXF 393; 6.12 µM (inactive) in the assay with SK-OV-3; 0.918 µM (active) in the assay with SN12C; 1.85 µM (inactive) in the assay on SNB-75. In addition, the GI50 was 1.76 µM (inactive) in the assay on T47D and 1.54 µM (inactive) in the assay on UO-31.

For `CC12C=CC(=O)C=C1CCC1C3CCC(O)(C(=O)CO)C3(C)CC(O)C12F` (stereo not given), the GI50 was > 100 µM (inactive) with A498; > 100 µM (inactive) with CAKI-1; > 100 µM (inactive) in the assay with COLO 205; > 100 µM with HCT-15; > 100 µM (inactive) in the assay on HOP-62; > 100 µM (inactive) in the assay with HOP-92. In addition, the GI50 in the assay on HT-29, in the assay with IGROV-1, in the assay on K562, with M14, in the assay on MCF7 and in the assay on NCI-H460 was > 100 µM (inactive) in each case. The GI50 in the assay on NCI-H522 is > 100 µM (inactive); with RPMI-8226 it was 17.1 µM (inactive); in the assay on RXF 393 it was > 100 µM (inactive); in the assay on SK-OV-3, > 4.88 µM (inactive); in the assay on SN12C, > 100 µM (inactive); in the assay with SNB-75 it was > 100 µM (inactive). Besides, the GI50 with T47D and in the assay with UO-31 was > 100 µM (inactive) each time.

Turning to `COc1ccc(/C=C2\N=C(c3ccccc3)N(NC3=NC(=O)CC(=O)N3)C2=O)cc1`, the GI50 in the assay with A498 is > 100 µM (inactive); with CAKI-1, > 100 µM (inactive); in the assay on COLO 205, > 100 µM (inactive); in the assay with HCT-15, > 100 µM; in the assay with HOP-62, > 100 µM (inactive); with HOP-92, > 100 µM (inactive). The GI50 in the assay on HT-29 was > 100 µM (inactive); in the assay on IGROV-1, > 100 µM (inactive); with K562 it was > 100 µM (inactive); with M14 it was > 100 µM (inactive); in the assay with MCF7, 20.4 µM (inactive); in the assay with NCI-H460 it was > 100 µM (inactive). Further, the GI50 with NCI-H522, in the assay on RPMI-8226, in the assay on RXF 393, in the assay on SK-OV-3, in the assay with SN12C and in the assay with SNB-75 was > 100 µM (inactive) each time. For the same molecule, the GI50 in the assay with T47D and in the assay with UO-31 was > 100 µM (inactive) in each case.
